From the OligoGym collection
HELM strings list units from the 5' end as sugar, base in round brackets, then linkage (d deoxyribose, r ribose, m 2'-O-methyl, p phosphodiester). Strings are as the collection lists them; they lack the last nucleoside at the 3' end of the tested compound. [moe] = 2'-O-(2-methoxyethyl) (MOE); [sp] = phosphorothioate linkage; [m5C] = 5-methylcytosine

Target: PRNP
Test: mouse, dose not given
Settings: ASO

Row | Substance | 3 h FOB score [score 0-7]
1 | RNA1{[moe](G)[sp].[moe](G)p.[moe](T)p.[moe](T)p.[moe](T)[sp].d(T)[sp].d(T)[sp].d(G)[sp].d(G)[sp].d([m5C])[sp].d(T)[sp].d(T)[sp].d(A)[sp].d([m5C])[sp].d(T)[sp].[moe]([m5C])p.[moe](G)p.[moe](G)[sp].[moe]([m5C])}$$$$ (last 3' nucleoside missing) | 4
2 | RNA1{[moe](G)[sp].[moe]([m5C])p.[moe](A)p.[moe](A)p.[moe](G)[sp].d([m5C])[sp].d(A)[sp].d(G)[sp].d(T)[sp].d(T)[sp].d([m5C])[sp].d(T)[sp].d(T)[sp].d(T)[sp].d(T)[sp].[moe]([m5C])p.[moe](T)p.[moe](T)[sp].[moe](T)}$$$$ (last 3' nucleoside missing) | 6
3 | RNA1{[moe](T)[sp].[moe](G)p.[moe](T)p.[moe](G)p.[moe](T)[sp].d([m5C])[sp].d(A)[sp].d(T)[sp].d(A)[sp].d(A)[sp].d(T)[sp].d(T)[sp].d(T)[sp].d(T)[sp].d([m5C])[sp].[moe](T)p.[moe](T)p.[moe](A)[sp].[moe](G)}$$$$ (last 3' nucleoside missing) | 1
4 | RNA1{[moe](A)[sp].[moe]([m5C])[sp].[moe](T)p.[moe]([m5C])p.[moe](T)p.[moe](A)p.[moe](T)p.d(G)[sp].d(T)[sp].d(T)[sp].d(T)[sp].d(T)[sp].d([m5C])[sp].d([m5C])[sp].d(A)[sp].d(G)[sp].d(T)[sp].[moe](G)p.[moe]([m5C])}$$$$ (last 3' nucleoside missing) | 4.25
5 | RNA1{[moe]([m5C])[sp].[moe](A)p.[moe]([m5C])p.[moe](A)p.[moe]([m5C])p.d(T)[sp].d(G)[sp].d(A)[sp].d([m5C])[sp].d([m5C])[sp].d(A)[sp].d(T)[sp].d(T)[sp].d(T)[sp].[moe](T)p.[moe](T)p.[moe](T)[sp].[moe](A)}$$$$ (last 3' nucleoside missing) | 0
6 | RNA1{[moe](T)[sp].[moe]([m5C])p.[moe](A)p.[moe](T)p.[moe](A)p.d(A)[sp].d(T)[sp].d(T)[sp].d(T)[sp].d(T)[sp].d([m5C])[sp].d(T)[sp].d(T)[sp].d(A)[sp].[moe](G)p.[moe]([m5C])p.[moe](T)[sp].[moe](A)}$$$$ (last 3' nucleoside missing) | 0
7 | RNA1{[moe]([m5C])[sp].[moe](T)p.[moe](G)p.[moe](T)p.[moe]([m5C])[sp].d(A)[sp].d(T)[sp].d([m5C])[sp].d(T)[sp].d([m5C])[sp].d([m5C])[sp].d(A)[sp].d(A)[sp].d([m5C])[sp].d([m5C])[sp].[moe](T)p.[moe](A)p.[moe](A)[sp].[moe](G)}$$$$ (last 3' nucleoside missing) | 1
8 | RNA1{[moe](A)[sp].[moe]([m5C])p.[moe](T)p.[moe]([m5C])p.[moe](T)[sp].d(A)[sp].d(T)[sp].d(G)[sp].d(T)[sp].d(T)[sp].d(T)[sp].d(T)[sp].d([m5C])[sp].[moe]([m5C])p.[moe](A)p.[moe](G)[sp].[moe](T)}$$$$ (last 3' nucleoside missing) | 4.5
9 | RNA1{[moe](T)[sp].[moe](G)p.[moe]([m5C])p.[moe](T)p.[moe](T)[sp].d(A)[sp].d(T)[sp].d(T)[sp].d(A)[sp].d(T)[sp].d(T)[sp].d([m5C])[sp].d(A)[sp].d(T)[sp].d(G)[sp].[moe](T)p.[moe](T)p.[moe]([m5C])[sp].[moe](T)}$$$$ (last 3' nucleoside missing) | 0
10 | RNA1{[moe](T)[sp].[moe](A)p.[moe]([m5C])p.[moe](T)p.[moe](T)[sp].d(G)[sp].d(T)[sp].d([m5C])[sp].d(A)[sp].d(G)[sp].d(T)[sp].d(T)[sp].d(T)[sp].d(T)[sp].d(T)[sp].[moe]([m5C])p.[moe]([m5C])p.[moe]([m5C])[sp].[moe]([m5C])}$$$$ (last 3' nucleoside missing) | 4.5
11 | RNA1{[moe](T)[sp].[moe]([m5C])p.[moe](T)p.[moe](A)p.d(T)[sp].d(G)[sp].d(T)[sp].d(T)[sp].d(T)[sp].d(T)[sp].d([m5C])[sp].d([m5C])[sp].d(A)[sp].d(G)[sp].[moe](T)p.[moe](G)p.[moe]([m5C])p.[moe]([m5C])[sp].[moe]([m5C])}$$$$ (last 3' nucleoside missing) | 1
12 | RNA1{[moe](T)[sp].[moe](G)p.[moe](T)p.[moe](A)p.[moe](G)[sp].d(A)[sp].d(A)[sp].d(G)[sp].d([m5C])[sp].d(A)[sp].d(T)[sp].d(T)[sp].d(G)[sp].d(T)[sp].d(A)[sp].[moe]([m5C])p.[moe]([m5C])p.[moe](T)[sp].[moe]([m5C])}$$$$ (last 3' nucleoside missing) | 4.5
13 | RNA1{[moe]([m5C])[sp].[moe](T)p.[moe]([m5C])p.[moe](T)p.[moe](A)p.d(T)[sp].d(G)[sp].d(T)[sp].d(T)[sp].d(T)[sp].d(T)[sp].d([m5C])[sp].d([m5C])[sp].d(A)[sp].[moe](G)p.[moe](T)p.[moe](G)[sp].[moe]([m5C])}$$$$ (last 3' nucleoside missing) | 0.25
14 | RNA1{[moe]([m5C])[sp].[moe](T)p.[moe]([m5C])p.[moe](T)p.d(A)[sp].d(T)[sp].d(G)[sp].d(T)[sp].d(T)[sp].d(T)[sp].d(T)[sp].d([m5C])[sp].d([m5C])[sp].d(A)[sp].[moe](G)p.[moe](T)p.[moe](G)p.[moe]([m5C])[sp].[moe]([m5C])}$$$$ (last 3' nucleoside missing) | 3.25
15 | RNA1{[moe](T)[sp].[moe]([m5C])p.[moe](A)p.[moe]([m5C])p.[moe](T)[sp].d(G)[sp].d(T)[sp].d(G)[sp].d(A)[sp].d(A)[sp].d(T)[sp].d(A)[sp].d(T)[sp].d(G)[sp].d(T)[sp].[moe]([m5C])p.[moe]([m5C])p.[moe](T)[sp].[moe]([m5C])}$$$$ (last 3' nucleoside missing) | 5
16 | RNA1{[moe](G)[sp].[moe](G)p.[moe](T)p.[moe](T)p.[moe]([m5C])[sp].d(A)[sp].d(G)[sp].d(T)[sp].d(G)[sp].d(T)[sp].d(T)[sp].d(G)[sp].d(T)[sp].d(G)[sp].d(A)[sp].[moe]([m5C])p.[moe](A)p.[moe](A)[sp].[moe](T)}$$$$ (last 3' nucleoside missing) | 7
17 | RNA1{[moe]([m5C])[sp].[moe]([m5C])p.[moe]([m5C])p.[moe]([m5C])p.[moe](A)[sp].d(G)[sp].d(T)[sp].d(G)[sp].d(T)[sp].d(T)[sp].d([m5C])[sp].d([m5C])[sp].d(A)[sp].d(T)[sp].d([m5C])[sp].[moe]([m5C])p.[moe](T)p.[moe]([m5C])[sp].[moe]([m5C])}$$$$ (last 3' nucleoside missing) | 0
18 | RNA1{[moe](G)[sp].[moe]([m5C])p.[moe]([m5C])p.[moe](A)p.d([m5C])[sp].d(A)[sp].d(T)[sp].d(A)[sp].d(T)[sp].d(A)[sp].d(G)[sp].d(G)[sp].d(G)[sp].d(T)[sp].[moe]([m5C])p.[moe]([m5C])p.[moe](T)p.[moe](T)[sp].[moe](T)}$$$$ (last 3' nucleoside missing) | 3.75
19 | RNA1{[moe](T)[sp].[moe](G)p.[moe](T)p.[moe](G)p.[moe]([m5C])[sp].d(T)[sp].d(T)[sp].d(A)[sp].d(T)[sp].d(T)[sp].d(A)[sp].d(T)[sp].d(T)[sp].d([m5C])[sp].d(A)[sp].[moe](T)p.[moe](G)p.[moe](T)[sp].[moe](T)}$$$$ (last 3' nucleoside missing) | 0
20 | RNA1{[moe]([m5C])[sp].[moe](T)p.[moe](T)p.[moe](A)p.[moe]([m5C])p.d(T)[sp].d([m5C])[sp].d(G)[sp].d(G)[sp].d([m5C])[sp].d(T)[sp].d(T)[sp].d(G)[sp].d(T)[sp].[moe](T)p.[moe]([m5C])p.[moe]([m5C])[sp].[moe](A)}$$$$ (last 3' nucleoside missing) | 1.75
21 | RNA1{[moe](G)[sp].[moe](A)p.[moe](T)p.[moe](T)p.[moe](G)[sp].d(T)[sp].d([m5C])[sp].d(T)[sp].d([m5C])[sp].d([m5C])[sp].d([m5C])[sp].d(T)[sp].d(A)[sp].d(T)[sp].d(T)[sp].[moe]([m5C])p.[moe](T)p.[moe](T)[sp].[moe](T)}$$$$ (last 3' nucleoside missing) | 5.5
22 | RNA1{[moe](G)[sp].[moe]([m5C])p.[moe](T)p.[moe](T)p.[moe](A)[sp].d(A)[sp].d(T)[sp].d(T)[sp].d(A)[sp].d(G)[sp].d(T)[sp].d(T)[sp].d(A)[sp].d([m5C])[sp].d(A)[sp].[moe](T)p.[moe]([m5C])p.[moe](G)[sp].[moe](G)}$$$$ (last 3' nucleoside missing) | 4.5
23 | RNA1{[moe]([m5C])[sp].[moe](G)p.[moe](T)p.[moe]([m5C])p.d([m5C])[sp].d(A)[sp].d(T)[sp].d(T)[sp].d(T)[sp].d(T)[sp].d([m5C])[sp].d(T)[sp].d(G)[sp].d(T)[sp].[moe](G)p.[moe]([m5C])p.[moe](T)p.[moe](T)[sp].[moe](T)}$$$$ (last 3' nucleoside missing) | 3
24 | RNA1{[moe]([m5C])[sp].[moe](T)p.[moe](A)p.[moe](T)p.[moe](G)[sp].d(A)[sp].d(T)[sp].d(G)[sp].d(A)[sp].d(T)[sp].d(G)[sp].d(G)[sp].d(T)[sp].d(G)[sp].d([m5C])[sp].[moe](T)p.[moe](T)p.[moe](T)[sp].[moe]([m5C])}$$$$ (last 3' nucleoside missing) | 6
25 | RNA1{[moe](T)[sp].[moe](G)p.[moe](T)p.[moe](G)p.[moe](A)[sp].d([m5C])[sp].d(A)[sp].d(A)[sp].d(T)[sp].d(A)[sp].d(T)[sp].d(T)[sp].d(T)[sp].d(A)[sp].d([m5C])[sp].[moe](T)p.[moe]([m5C])p.[moe](T)[sp].[moe](T)}$$$$ (last 3' nucleoside missing) | 2.25
26 | RNA1{[moe](G)[sp].[moe](T)p.[moe](G)p.[moe](A)p.[moe]([m5C])[sp].d(A)[sp].d(A)[sp].d(T)[sp].d(A)[sp].d(T)[sp].d(T)[sp].d(T)[sp].d(A)[sp].d([m5C])[sp].d(T)[sp].[moe]([m5C])p.[moe](T)p.[moe](T)[sp].[moe](G)}$$$$ (last 3' nucleoside missing) | 1
